What was measured:
BRAF (wild-type) = target: T1, BRAF (wild-type) (Homo sapiens, UniProt P15056); experiment: Reaction Biology kinase HotSpot enzyme assay; type: biochemical; details: 1 µM ATP; mean ± S.D. of two separate experiments
T1 construct: purchased Reaction Biology Corp. (Kinase HotSpot service)
Protocol: The enzymatic assays were performed in Reaction Biology Corp. using the standard protocol at 1 µM ATP and threefold dilution factor (detailed procedure is found in the Supplementary Information page 52 s).
Reaction Biology Corp. Kinase HotSpotTM service http://www.reactionbiology.com was used for screening of compounds IC50 Proﬁler Express for IC50 measurement. Assay protocol: In a ﬁnal reaction volume of 25 μL, kinase (5–10 mU) is incubated with 25 mM Tris pH 7.5, 0.02 mM EGTA, 0.66 mg/mL myelin basic protein, 10 mM magnesium acetate and [γ33P-ATP] (speciﬁc activity approx. 500 cpm/pmol, concentration as required). The reaction is initiated by the addition of the Mg-ATP mix. After incubation for 40 min at room temperature, the reaction is stopped by the addition of 5 μL of a 3% phosphoric acid solution. 10 μL of the reaction is then spotted onto a P30 ﬁltermat, and washed three times for 5 min in 75 mM phosphoric acid and once in methanol prior to drying and scintillation counting.

UO-31 = experiment: NCI 60 cell line screen; type: cell-based, human; details: Homo sapiens; UO-31, Renal Cancer; read-out: Percent growth
Protocol: (§1) Anticancer profiling over a panel of 60 cancer cell lines was carried out at the National Cancer Institute (NCI), Bethesda, Maryland, USA, https://dtp.cancer.gov/discovery_development/nci-60/methodology.htm (Last visit 22 September 2021), using the standard procedure (detailed procedure is located in the Supplementary Information page 50 s).
(§2) NCI standard procedure for 60 cell lines assay
(§3) The human tumor cell lines of the cancer screening panel are grown in RPMI 1640 mediu m containing 5% fetal bovine serum and 2 mM L-glutamine. For a typical screening experiment, cells are inoculated into 96 well microtiter plates in 100 μL at plating densities ranging from 5,000 to 40,000 cells/well depending on the doubling time of individual cell lines. After cell inoculation, the microtiter plates are incubated at 37° C, 5 % CO2, 95 % air and 100 % relative humidity for 24 h prior to addition of experimental drugs.
(§4) After 24 h, two plates of each cell line are fixed in situ with TCA, to represent a measurement of the cell population for each cell line at the time of drug addition (Tz). Experimental drugs are solubilized in dimethyl sulfoxide at 400-fold the desired final maximum test concentration (10 µM) and stored frozen prior to use. At the time of drug addition, an aliquot of frozen concentrate is thawed and diluted to twice the desired final maximum test concentration with co mp lete medium containing 50 μg/ml gentamicin. Additional four, 10-fold or ½ log serial dilutions are made to provide a total of five drug concentrations plus control. Aliquots of 100 μl of these different drug dilutions are added to the appropriate microtiter wells already containing 100 μl of medium, resulting in the required final drug concentrations.
(§5) Following drug addition, the plates are incubated for an additional 48 h at 37°C, 5 % CO2, 95 % air, and 100 % relative humidity. For adherent cells, the assay is terminated by the addition of cold TCA. Cells are fixed in situ by the gentle addition of 50 μl of cold 50 % (w/v) TCA (final concentration, 10 % TCA) and incubated for 60 minutes at 4°C. The supernatant is discarded, and the plates are washed five times with tap water and air dried. Sulforhodamine B (SRB) solution (100 μl) at 0.4 % (w/v) in 1 % acetic acid is added to each well, and plates are incubated for 10 minutes at room temperature. After staining, unbound dye is removed by washing five times with 1 % acetic acid and the plates are air dried. Bound stain is subsequently solubilized with 10 mM trizma base, and the absorbance is read on an automated plate reader at a wavelength of 515 nm. For suspension cells, the methodology is the same except that the assay is terminated by fixing settled cells at the bottom of the wells by g ently adding 50 μl of 80 % TCA (final concentration, 16 % TCA). Using the seven absorbance measurements [time zero, (Tz), control growth, (C), and test growth in the presence of drug at the five concentration levels (Ti)], the percentage growth is calculated at each of the drug concentrations levels. Percentage growth inhibition is calculated as:
(§6) [(Ti-Tz)/(C-Tz)] x 100 for concentrations for which Ti>/=Tz
(§7) [(Ti-Tz)/Tz] x 100 for concentrations for which Ti<Tz.
(§8) Three dose response parameters are calculated for each experimental agent. Growth inhibition of […]
(§9) resulting in a 50% reduction in the net protein increase (as measured by SRB staining) in control cells during the drug incubation. The drug concentration resulting in total growth inhibition […]
(§10) (TGI) is calculated from Ti = Tz.

U251 = experiment: NCI 60 cell line screen; type: cell-based, human; details: for activity at 10 µM: Homo sapiens, U-251, U251, CNS-Cancer, read-out: Percent growth
Protocol: as §1, §2, §3, §4, §5, §6, §7, §8, §9, §10

CAKI-1 = experiment: NCI 60 cell line screen; type: cell-based, human; details: Homo sapiens; CAKI-1, Renal Cancer; read-out: Percent growth
Protocol: as §1, §2, §3, §4, §5, §6, §7, §8, §9, §10

MDA-MB-468 = experiment: NCI 60 cell line screen; type: cell-based, human; details: for activity at 10 µM: Homo sapiens, MDA-MB-468, Breast Cancer, read-out: Percent growth
Protocol: as §1, §2, §3, §4, §5, §6, §7, §8, §9, §10

SNB-75 = experiment: NCI 60 cell line screen; type: cell-based, human; details: for activity at 10 µM: Homo sapiens, SNB-75, CNS-Cancer, read-out: Percent growth
Protocol: as §1, §2, §3, §4, §5, §6, §7, §8, §9, §10

EKVX = experiment: NCI 60 cell line screen; type: cell-based, human; details: for activity at 10 µM: Homo sapiens, Non-Small Cell Lung Cancer, read-out: Percent growth
Protocol: as §1, §2, §3, §4, §5, §6, §7, §8, §9, §10

NCI/ADR-RES = experiment: NCI 60 cell line screen; type: cell-based, human; details: for activity at 10 µM: Homo sapiens, Ovarian Cancer, read-out: Percent growth
Protocol: as §1, §2, §3, §4, §5, §6, §7, §8, §9, §10

HOP-92 = experiment: NCI 60 cell line screen; type: cell-based, human; details: for activity at 10 µM: Homo sapiens, HOP-92, Non-Small Cell Lung Cancer, read-out: Percent growth
Protocol: as §1, §2, §3, §4, §5, §6, §7, §8, §9, §10

NCI-H226 = experiment: NCI 60 cell line screen; type: cell-based, human; details: for activity at 10 µM: Homo sapiens, NCI-H226, Non-Small Cell Lung Cancer, read-out: Percent growth
Protocol: as §1, §2, §3, §4, §5, §6, §7, §8, §9, §10

RPMI-8226 = experiment: NCI 60 cell line screen; type: cell-based, human; details: for activity at 10 µM: Homo sapiens, RPMI-8226, Leukemia, read-out: Percent growth
Protocol: as §1, §2, §3, §4, §5, §6, §7, §8, §9, §10

T-47D = experiment: NCI 60 cell line screen; type: cell-based, human; details: for activity at 10 µM: Homo sapiens, T47D, Breast Cancer, read-out: Percent growth; for percent inhibition: NCI-60 heat map analysis
Protocol: as §1, §2, §3, §4, §5, §6, §7, §8, §9, §10

NCI-H522 = experiment: NCI 60 cell line screen; type: cell-based, human; details: for activity at 10 µM: Homo sapiens, NCI-H522, Non-Small Cell Lung Cancer, read-out: Percent growth
Protocol: as §1, §2, §3, §4, §5, §6, §7, §8, §9, §10

PC-3 = experiment: NCI 60 cell line screen; type: cell-based, human; details: for activity at 10 µM: Homo sapiens, PC-3, Prostate Cancer, read-out: Percent growth
Protocol: as §1, §2, §3, §4, §5, §6, §7, §8, §9, §10

OVCAR-4 = experiment: NCI 60 cell line screen; type: cell-based, human; details: for activity at 10 µM: Homo sapiens, OVCAR-4, Ovarian Cancer, read-out: Percent growth; for percent inhibition: OVCAR-4, NCI-60 heat map analysis
Protocol: as §1, §2, §3, §4, §5, §6, §7, §8, §9, §10

T1 sequence (P15056 whole entry): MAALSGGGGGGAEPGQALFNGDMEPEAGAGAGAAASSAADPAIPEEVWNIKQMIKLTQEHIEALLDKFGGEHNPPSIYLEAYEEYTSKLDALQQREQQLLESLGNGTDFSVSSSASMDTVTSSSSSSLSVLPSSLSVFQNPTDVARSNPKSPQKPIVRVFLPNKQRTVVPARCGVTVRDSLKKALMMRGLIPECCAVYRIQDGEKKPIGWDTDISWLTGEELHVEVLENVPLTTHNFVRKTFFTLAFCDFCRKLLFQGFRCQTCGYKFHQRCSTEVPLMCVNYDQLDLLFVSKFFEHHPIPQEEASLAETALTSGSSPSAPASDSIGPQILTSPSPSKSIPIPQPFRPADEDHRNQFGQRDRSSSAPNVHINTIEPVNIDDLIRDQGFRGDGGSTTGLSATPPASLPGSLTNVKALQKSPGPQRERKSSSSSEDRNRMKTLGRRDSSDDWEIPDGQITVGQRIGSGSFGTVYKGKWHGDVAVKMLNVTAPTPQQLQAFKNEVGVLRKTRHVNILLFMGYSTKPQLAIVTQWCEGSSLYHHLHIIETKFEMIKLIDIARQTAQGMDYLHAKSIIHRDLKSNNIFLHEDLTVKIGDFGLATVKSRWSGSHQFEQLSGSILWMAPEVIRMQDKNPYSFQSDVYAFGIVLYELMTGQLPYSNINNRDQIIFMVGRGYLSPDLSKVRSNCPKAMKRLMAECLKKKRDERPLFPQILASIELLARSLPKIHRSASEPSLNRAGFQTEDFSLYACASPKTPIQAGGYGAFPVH

Row | Compound | IC50 (BRAF (wild-type)) [nM] | activity at 10 µM (UO-31) [%] | activity at 10 µM (U251) [%] | activity at 10 µM (CAKI-1) [%] | activity at 10 µM (MDA-MB-468) [%] | activity at 10 µM (SNB-75) [%] | activity at 10 µM (EKVX) [%] | activity at 10 µM (NCI/ADR-RES) [%] | activity at 10 µM (HOP-92) [%] | activity at 10 µM (NCI-H226) [%] | activity at 10 µM (RPMI-8226) [%] | activity at 10 µM (T-47D) [%] | percent inhibition (T-47D) [%] | activity at 10 µM (NCI-H522) [%] | activity at 10 µM (PC-3) [%] | activity at 10 µM (OVCAR-4) [%] | percent inhibition (OVCAR-4) [%] | also measured
1 | O=S(=O)(NCCCNc1nccc(-n2cnc3ccccc32)n1)c1ccc(F)cc1 [12i, N-(3-((4-(1H-benzo [d]imidazol-1-yl)pyrimidin-2-yl)amino)propyl)-4-fluorobenzenesulfonamide] | 1330 ± 81 | 59.3 | 93.8 | 71 | 50.2 | 82.5 | 61.2 | 64.3 | 87.9 | 64.1 | 57.8 | 25.5 | 75 | 68.5 | 69.3 | 44.2 | 56 | percent inhibition (EKVX; NCI-60 heat map analysis): around 30%; percent inhibition (NCI-H226; NCI-H226, NCI-60 heat map analysis): around 30%; percent inhibition (NCI-H522; NCI-H522, NCI-60 heat map analysis): around 30%
2 | O=S(=O)(NCCNc1nccc(-n2cnc3ccccc32)n1)c1ccc(C(F)(F)F)cc1 [12e, N-(2-((4-(1H-benzo [d]imidazol-1-yl)pyrimidin-2-yl)amino)ethyl)-4-(trifluoromethyl)benzenesulfonamide] | 1250 ± 95 | 39.9 | 42.4 | 43.1 | 26.4 | 46.8 | 34.7 | 55.9 | 54.5 | 62.7 | 44.9 | 22.3 | 77 | 38.2 | 45.5 | 28.4 | 71 | percent inhibition (U251; U251, NCI-60 heat map analysis): more than 50%; percent inhibition (MDA-MB-468; MDA-MB-468, NCI-60 heat map analysis): 74%; percent inhibition (SNB-75; SNB-75, NCI-60 heat map analysis): more than 50%; percent inhibition (NCI/ADR-RES; NCI-60 heat map analysis): 45%; percent inhibition (HOP-92; HOP-92, NCI-60 heat map analysis): around 40%; percent inhibition (RPMI-8226; RPMI-8226, NCI-60 heat map analysis): 55%; percent inhibition (PC-3; PC-3, NCI-60 heat map analysis): 55%
3 | O=S(=O)(NCCNc1nccc(-n2cnc3ccccc32)n1)c1ccc(F)cc1 [12b, N-(2-((4-(1H-benzo [d]imidazol-1-yl)pyrimidin-2-yl)amino)ethyl)-4-fluorobenzenesulfonamide] | 1510 ± 220 | 72.6 | 99.5 | 82 | 71.6 | 73.6 | 85.2 | 103 | 82.3 | 77.5 | 73.6 | 64.4 |  | 71.8 | 91.3 | 72.3 |  | 
4 | O=S(=O)(NCCCNc1nccc(-n2cnc3ccccc32)n1)c1ccc(Br)cc1 [12k, N-(3-((4-(1H-benzo [d]imidazol-1-yl)pyrimidin-2-yl)amino)propyl)-4-bromo benzenesulfonamide] | 1530 ± 110 | 74.3 | 96.6 | 84.5 | 70.7 | 86.1 | 81.5 | 88.9 | 79.3 | 80.2 | 71.1 | 45.3 | 55 | 75.5 | 84.7 | 72.1 |  | 
5 | O=S(=O)(NCCNc1nccc(-n2cnc3ccccc32)n1)c1ccc(Cl)cc1 [12c, N-(2-((4-(1H-benzo [d]imidazol-1-yl)pyrimidin-2-yl)amino)ethyl)-4-chlorobenzenesulfonamide] | 1380 ± 170 | 81.6 | 102 | 87.4 | 101 | 79.4 | 92.2 | 97.8 | 90.2 | 91.1 | 99.4 | 97.1 |  | 92.1 | 103 | 95.2 |  | 
